Results taken from patent publication US11161845B2, “Pyrrolopyridine-aniline compounds for treatment of dermal disorders” (Nflection Therapeutics, Inc., priority 2017, dated 2021).

Assays:
[1] = test system: p-ERK in human cutaneous neurofibroma (cNF) explants; assay: Human cutaneous neurofibroma explant protocol, p-ERK suppression; assay type: cell-based
Source text: Study Objectives: The primary objective was to assess the efficacy of a topically-formulated compound described herein in suppressing p-ERK, a downstream biomarker of RAS/MAPK signaling in neurofibroma explants.
Primary dermal neurofibromas or cutaneous neurofibromas were obtained from patients with clinical or genetic diagnoses of NFL. […] Specimens were identified under the direction of the Principal Investigator and placed in cell proliferation media (DMEM/F12 containing penicillin/streptomycin (0.1%); fungizone (40 μg/mL); B27 (without vitamin A).
Specimens were identified under the direction of the Principal Investigator
Specimens were chopped into 2 mm fragments and placed in 24-well plates containing cell proliferation media (DMEM/F12 containing penicillin/streptomycin (0.1%); fungizone (40 μg/mL); B27 (without vitamin A) and submerged in media with drug. For topical gel application, samples were placed in 96 well plates with epidermal surface exposed to air.
The gel formulation was 1% hydroxypropyl cellulose in DMSO/PEG 400 1:1 (v/v). Harvested tissue was bisected and with half snap frozen and half fixed in 10% formalin and paraffin embedded for further analysis.
Samples were harvested at 4 hours with half snap frozen in liquid nitrogen and half fixed in 10% formalin and paraffin embedded for histologic analysis.
Western Blot analysis: For immunoblotting, total skin biopies were lysed in lysis buffer and run on Western blots. Antibodies used for immunoblotting included rabbit anti-phospho-p44/42 MAPK (1:3000, Cell Signaling) and rabbit anti-p44/42 MAPK (1:3000, Cell Signaling), rabbit anti-phospho-Mek1/2 (1:3000, Cell Signaling), mouse anti-actin (1:5000, Sigma-Aldrich), donkey anti-mouse IgG conjugated to horseradish peroxidase (HRP; 1:40,000, Amersham Biosciences) and goat anti-rabbit IgG conjugated HRP (1:40,000, Jackson ImmunoResearch).
Immunohistochemistry: Immunohistochemistry was performed on 5 pm paraffin sections. Antigen retrieval with enzyme treatment (1:1000) using standard protocols. Antibodies used were rabbit p-ERK (Cell Signaling, 4307S, 1:100). Bond Polymer Refine anti-rabbit HRP Detection (Leica Biosystems) was used according to manufacturer's protocol. Sections were then counterstained with hematoxylin, dehydrated and film coverslipped using a TissueTek-Prisma and Coverslipper (Sakura).
Data Analysis: Semi-quantative Western blot was used to assess differences in p-ERK in samples treated with a compound described herein compared to vehicle control.

MDCK-MDR1 cells = assay: in vitro; details: dog, MDCK-MDR1, 1 h, 5 μM
Procedure: (§1) MDCK-MDR1 is a stable-transfected cell line originating from MDCK cells, with over-expression of human MDR1 gene. The cell line is widely used for the identification and characterization of P-gp substrates and inhibitors.
(§2) MDCK-MDR1 cells were plated into 96-well Millipore Millicell-96 plates at 7,500 cells/75 μL/well and incubated for three days at 37° C. with 5% CO2. Cells were washed with Hank's Balanced Salt Solution (HBSS) with 5 mM HEPES for 30 minutes before starting the experiment. Test compound solutions were prepared by diluting DMSO stock into HBSS buffer, resulting in a final DMSO concentration of 0.1%. Prior to the experiment, cell monolayer integrity was verified by […] electrical resistance (TEER). Transport experiment was initiated by adding test compounds to the apical (75 μL) or basal (250 μL) side. Transport plates were incubated at 37° C. in a humidified incubator with 5% CO2. Samples were taken from the donor and acceptor compartments after one hour and analyzed by liquid chromatography with tandem mass spectrometry (LC/MS/MS).
(§3) Digoxin was used as reference control.
(§4) Apparent permeability (Papp) values were calculated using the following equation: Papp=(dQ/dt)/A/Co; where dQ/dt is the initial rate of amount of test compound transported across cell monolayer, A is the surface area of the filter membrane, and Co is the initial concentration of the test compound, calculated for each direction using a 4-point calibration curve by LC/MS/MS.
(§5) Net flux ratio between the two directional transports was calculated by the following equation: Ratio=Papp, B-A/Papp, A-B; where Papp, B-A and Papp, A-B represent the apparent permeability of test compound from the basal-to-apical and apical-to-basal side of the cellular monolayer, respectively.
(§6) Recovery was calculated based on the compound concentration at the end of the experiment, compared to that at the beginning of the experiment, adjusted for volumes.
(§7) A net flux ratio greater than two was considered a positive result for substrate determination. […] If the addition of a known P-gp inhibitor to the experiment reduces the net flux ratio by a significant amount (more than 50% reduction or reduces the ratio to close to unity), it is likely that the compound tested is a P-gp substrate.

P-gp (human MDR1) = assay: in vitro; details: dog; for Papp A→B at 1 h, 5 μM / Papp B→A at 1 h, 5 μM: MDCK-MDR1, Papp
Procedure: as §1, §2, §3, §4, §5, §6, §7

hERG channel protein = biological target: T1, hERG channel protein (Homo sapiens, UniProt Q12809); assay: hERG screening assay (Predictor hERG FP); assay type: binding; details: fluorescence polarization tracer displacement
T1 construct: purchased ThermoFisher PV5365
Procedure: hERG screening was conducted using a procedure similar to the procedure described by Piper et al. (Piper, D. R. et al., Assay Drug Dev. Technol. 2008, 6(2):213-223). The Predictor hERG FP assay (available from ThermoFisher, cat. no. PV5365) is a homogenous, fluorescence polarization biochemical-based format utilizing a membrane fraction containing hERG channel protein (Predictor hERG Membrane) and a high affinity, red-fluorescent hERG channel ligand (Predictor hERG Tracer Red). When the Predictor hERG Tracer ligand is bound to the hERG channel it produces high fluorescence polarization values. Compounds that bind to the hERG channel protein (competitors) displace the Predictor hERG Tracer Red resulting in decreased fluorescence polarization values.
Test compounds were solubilized in DMSO at 100× (or greater) of the desired starting concentration. Screening was conducted with a final concentration of 1% DMSO. For 10-point titrations, 3-fold serial dilutions were performed from the starting concentrations. The assay buffer used was 25 mM HEPES (pH 7.5), 15 mM KCl, 1 mM MgCl2, and 0.05% Pluronic F-127 (available from Sigma-Aldrich).
Predictor hERG membranes were stored as a 2× stock at −80° C. Each membrane lot was titrated to identify the concentration of membranes required to obtain ˜70% bound tracer. Before setting up the assay the membranes were thawed in a 37° C. water bath and stored at room temperature. To avoid light scatter caused by large membrane particulates the membranes were sonicated until a homogeneous solution free of particulates is obtained. […]
384 well untreated low-volume polystyrene microplates (Corning Cat. #4511) were used for the assay. […] The assay plate was read on a fluorescence plate reader (Tecan Safire^2) and the data was analyzed. […]
Assay blank control wells consisted of Predictor hERG Membranes and Assay Buffer. The blank wells were used for background subtraction of raw parallel and perpendicular fluorescence values prior to the calculation of polarization values. […]

T1 sequence (Q12809 whole entry): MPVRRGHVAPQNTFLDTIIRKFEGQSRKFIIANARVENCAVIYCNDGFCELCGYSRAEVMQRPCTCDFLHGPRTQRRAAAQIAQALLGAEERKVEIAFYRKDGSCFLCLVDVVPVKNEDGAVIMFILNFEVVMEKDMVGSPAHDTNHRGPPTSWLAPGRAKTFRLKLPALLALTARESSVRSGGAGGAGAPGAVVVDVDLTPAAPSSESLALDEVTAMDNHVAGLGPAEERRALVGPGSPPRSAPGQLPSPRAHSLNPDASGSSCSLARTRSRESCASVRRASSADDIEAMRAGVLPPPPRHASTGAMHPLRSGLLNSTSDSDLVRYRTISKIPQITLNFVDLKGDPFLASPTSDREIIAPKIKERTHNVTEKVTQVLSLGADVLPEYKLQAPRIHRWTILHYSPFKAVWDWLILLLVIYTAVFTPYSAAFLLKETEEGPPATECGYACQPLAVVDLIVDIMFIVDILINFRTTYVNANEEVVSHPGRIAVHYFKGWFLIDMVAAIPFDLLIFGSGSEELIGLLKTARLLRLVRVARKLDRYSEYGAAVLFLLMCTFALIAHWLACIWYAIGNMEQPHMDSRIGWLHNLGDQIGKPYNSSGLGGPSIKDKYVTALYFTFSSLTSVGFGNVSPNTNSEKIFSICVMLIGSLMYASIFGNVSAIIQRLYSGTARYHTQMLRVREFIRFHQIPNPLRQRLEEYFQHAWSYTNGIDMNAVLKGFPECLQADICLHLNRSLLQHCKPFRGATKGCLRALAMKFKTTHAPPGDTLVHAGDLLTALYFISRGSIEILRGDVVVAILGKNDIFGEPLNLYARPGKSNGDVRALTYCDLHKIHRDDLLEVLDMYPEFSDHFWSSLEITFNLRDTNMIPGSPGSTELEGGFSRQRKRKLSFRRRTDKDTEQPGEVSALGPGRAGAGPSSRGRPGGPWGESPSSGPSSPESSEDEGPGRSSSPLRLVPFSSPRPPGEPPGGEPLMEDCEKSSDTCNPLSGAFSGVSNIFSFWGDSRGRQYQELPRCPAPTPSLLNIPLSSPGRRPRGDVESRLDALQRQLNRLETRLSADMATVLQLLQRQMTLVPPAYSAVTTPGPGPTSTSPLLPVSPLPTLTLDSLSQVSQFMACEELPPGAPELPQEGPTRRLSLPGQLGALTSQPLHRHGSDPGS

## Cn1c(Nc2ccc(I)cc2F)c(C(=O)NOCCO)c2cccnc21 [Example 2, 2-((2-Fluoro-4-iodophenyl)amino)—N-(2-hydroxyethoxy)-1-methyl-1H-pyrrolo[2,3-b]pyridine-3-carboxamide]
[1]; FIG. 2, 500 nM, explant submerged in media, 4 hours
  suppression of p-ERK: suppression of p-ERK
[1]; FIG. 3, explant submerged in media, 4 hours
  dose-dependent suppression of p-ERK: dose-dependent suppression of p-ERK
[1]; FIG. 4, gel 1% hydroxypropyl cellulose in DMSO/PEG 400 1:1, 4 hours
  p-ERK after application of a topical gel: p-ERK was suppressed
[1]; FIGS. 1a and 1b, explant submerged in media, 4 hours
  suppression of pERK: suppression of pERK
MDCK-MDR1 cells
  Papp, A-B Value: 47.8 ×10⁻⁶ cm/s
  Papp, B-A Value: 41.3 ×10⁻⁶ cm/s
  Recover Rate: 92%
P-gp (human MDR1); MDCK-MDR1
  efflux ratio at 1 h, 5 μM: 0.9
P-gp (human MDR1); A-B Mean
  Papp A→B at 1 h, 5 μM: 49.1 ×10⁻⁶ cm/s
P-gp (human MDR1); A-B Value
  Papp A→B at 1 h, 5 μM: 50.5 ×10⁻⁶ cm/s
P-gp (human MDR1); B-A Mean
  Papp B→A at 1 h, 5 μM: 41.8 ×10⁻⁶ cm/s
P-gp (human MDR1); B-A Value
  Papp B→A at 1 h, 5 μM: 42.3 ×10⁻⁶ cm/s
hERG channel protein
  IC50: > 30 µM
